Results reported in PubChem BioAssay (NCI).
“And” between values parts separate entries of the source, which are not always exact repeats. Equal entries are not always repeated.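 Interpolation was linear, between the two tested concentrations surrounding the appropriate level; five concentrations were tested over 48 hours in 96-well plates. GI50 marks 50% less growth. TGI: concentration producing complete growth inhibition.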

Key:
Assay in all cases: inhibition of tumour cell growth, NCI panel, 48 h
OVCAR-5 ovarian = tested on: OVCAR-5 ovarian
MDA-MB-231 breast = tested on: MDA-MB-231 breast
SR leukemia = tested on: SR leukemia
HCT-15 colon = tested on: HCT-15 colon
UACC-62 melanoma = tested on: UACC-62 melanoma
U251 CNS = tested on: U251 CNS
SK-MEL-5 melanoma = tested on: SK-MEL-5 melanoma
NCI/ADR-RES ovarian = tested on: NCI/ADR-RES ovarian
XF 498 CNS = tested on: XF 498 CNS
M19-MEL melanoma = tested on: M19-MEL melanoma

Structure (SMILES)	GI50 (OVCAR-5 ovarian)	TGI (OVCAR-5 ovarian)	GI50 (MDA-MB-231 breast)	TGI (MDA-MB-231 breast)	GI50 (SR leukemia)	TGI (SR leukemia)	GI50 (HCT-15 colon)	TGI (HCT-15 colon)	GI50 (UACC-62 melanoma)	TGI (UACC-62 melanoma)	GI50 (U251 CNS)	TGI (U251 CNS)	GI50 (SK-MEL-5 melanoma)	TGI (SK-MEL-5 melanoma)	GI50 (NCI/ADR-RES ovarian)	TGI (NCI/ADR-RES ovarian)	TGI (XF 498 CNS) [µM]	TGI (M19-MEL melanoma) [µM]
C=CC(=O)N1CCC(Oc2cc3c(Nc4ccc(Cl)c(Cl)c4F)ncnc3cc2OC)CC1	4.93 µM and 3.03 µM	39 µM and > 10 µM	3.79 µM and 1.65 µM	23.8 µM and > 9.63 µM	2.27 µM and 2.8 µM	10.9 µM and > 10 µM	2.52 µM and 2.23 µM	15.6 µM and > 10 µM	3.25 µM and 2.15 µM	18.7 µM and > 10 µM	7.13 µM and 3.33 µM	27 µM and > 10 µM	7.18 µM and 3.47 µM	19.3 µM and > 9 µM	1.43 µM and 1.41 µM	10.3 µM and > 9.25 µM	–	–
O=C1C=CC(=O)C2C1C1(Cl)C(Cl)=C(Cl)C2(Cl)C1(Cl)Cl (stereo unspecified)	12.4 µM	31.1 µM	3.62 µM	16.4 µM	2.53 µM	12.3 µM	4.11 µM	22.4 µM	5.19 µM	19.2 µM	5.76 µM	19.1 µM	6.61 µM	19.4 µM	3.75 µM	> 100 µM	–	–
NCCCNCCS	–	> 100 µM	–	> 100 µM	> 100 µM and 37 µM	> 100 µM	–	> 100 µM	–	> 100 µM	–	> 100 µM	–	> 100 µM	–	> 100 µM	> 100	–
COc1ccc2c(c1)C(=O)/C(=C/c1cccc(OCC(=O)c3ccccc3)c1)O2	4.31 µM	14.5 µM	7.62 µM	23.2 µM	1.47 µM	3.26 µM	2.42 µM	6.83 µM	13.4 µM	27 µM	7.97 µM	20.8 µM	14.3 µM	28.1 µM	8.9 µM	26.4 µM	–	–
Cc1ccc(S(=O)(=O)OC2CC=CC2)cc1	–	> 100 µM	–	–	–	–	–	> 100 µM	–	> 100 µM	–	> 100 µM	–	> 100 µM	–	–	> 100	> 100
Cc1cn(-c2cc(NC(=O)c3cccc(C#Cc4cccc5[nH]nc(N)c45)c3)cc(C(F)(F)F)c2)cn1	3.16 µM	> 100 µM	2.35 µM	16.7 µM	5.06 µM	> 100 µM	4.49 µM	> 100 µM	2.54 µM	12.7 µM	5.15 µM	20.3 µM	4.66 µM	21.7 µM	13.5 µM	> 100 µM	–	–
CC(C)(C)c1cc([N+](=O)[O-])cc([N+](=O)[O-])c1O	–	> 10 µM	–	> 10 µM	–	> 10 µM	–	> 10 µM	–	> 10 µM	–	> 10 µM	–	> 10 µM	–	> 10 µM	–	–
CCOc1cccc(/C=N/NC(=O)c2cccc(Nc3ccnc(C(F)(F)F)c3)c2)c1O	2.33 µM	60.7 µM	0.888 µM	> 91.1 µM	0.212 µM	8.67 µM	1.1 µM	> 100 µM	0.551 µM	11.7 µM	0.886 µM	> 47.1 µM	0.676 µM	7.84 µM	3.02 µM	27.8 µM	–	–
NC(CCCC(N)P(=O)(O)O)P(=O)(O)O (stereo unspecified)	–	–	–	–	–	–	–	> 100 µM	–	> 100 µM	–	> 100 µM	–	> 100 µM	–	–	–	> 100
COc1ccc(C(C#N)NC23CC4CC(CC(C4)C2)C3)cc1 (stereo unspecified)	–	> 100 µM	–	> 100 µM	–	> 100 µM	–	> 100 µM	–	> 100 µM	–	> 100 µM	–	> 100 µM	–	> 100 µM	–	–
C=CC[P@]1(=O)O[C@H](c2ccccc2)[C@H](C)N1C	–	> 100 µM	–	–	–	> 100 µM	–	> 100 µM	–	> 100 µM	–	> 100 µM	–	> 100 µM	–	–	–	> 100
O=C(/C=C/c1ccccc1)Nc1ncc(Cc2ccccc2Cl)s1	0.511 µM	> 100 µM	0.668 µM	> 100 µM	0.153 µM	> 100 µM	0.237 µM	> 100 µM	0.326 µM	> 100 µM	0.397 µM	> 100 µM	0.341 µM	–	0.325 µM	> 100 µM	–	–
CS(=O)(=O)CCNCc1coc(-c2ccc3ncnc(Nc4ccc(OCc5ccccc5)cc4)c3c2)c1	4.22 µM	11.7 µM	4.15 µM	8.26 µM	4.81 µM	12.9 µM	4.15 µM	9.53 µM	4.31 µM	8.18 µM	4.72 µM	> 14.2 µM	3.27 µM	6.46 µM	9.47 µM	> 25 µM	–	–
O=C(O)CSCCc1ccccc1	–	> 100 µM	–	> 100 µM	–	> 100 µM	–	> 100 µM	–	> 100 µM	–	> 100 µM	–	> 100 µM	–	> 100 µM	–	–
NC1=NN(c2ccccc2)C(=O)C1C(=O)CCC(=O)Nc1cccc(Cl)c1 (stereo unspecified)	–	> 100 µM	–	–	–	–	–	> 100 µM	–	> 100 µM	–	> 100 µM	–	> 100 µM	–	–	> 100	> 100
O=C(Nc1ccc(Cl)cc1)C1C(=O)C(=O)N(c2ccc(Cl)cc2)C1=O (stereo unspecified)	–	> 100 µM	–	–	–	> 100 µM	–	> 100 µM	–	> 100 µM	–	> 100 µM	–	> 100 µM	–	–	> 100	> 100
CSC(SC)(C(=O)O)c1cc(-c2c(Cl)cccc2Cl)no1	–	> 100 µM	–	> 100 µM	–	> 100 µM	–	41.9 µM	–	> 100 µM	–	> 100 µM	–	85.8 µM	–	> 100 µM	–	–
Oc1ccc2ccccc2c1N=Nc1cccc2ccccc12	–	> 100 µM	–	> 100 µM	–	> 100 µM	–	> 100 µM	–	> 100 µM	–	> 100 µM	–	> 100 µM	–	> 100 µM	–	–
CC/C=C\C[C@H]1CC=C2C(=O)C=C[C@@H]2CC=CCCCC(=O)O[C@@H](CCCCC)CC=C2C(=O)C=C[C@@H]2CC=CCCCC(=O)O[C@@H](CCCCC)CC=C2C(=O)C=C[C@@H]2CC=CCCCC(=O)O[C@@H](CCCCC)CC=C2C(=O)C=C[C@@H]2CC=CCCCC(=O)O1	4.02 µM	> 7.9 µM	1.91 µM	4.99 µM	1.58 µM	> 7.9 µM	2.84 µM	> 7.9 µM	1.52 µM	3.59 µM	1.45 µM	3.13 µM	1.85 µM	4.5 µM	> 7.9 µM	> 7.9 µM	–	–
